The results in this text go back to EP0499926B1, “2-Substituted quinolines, process for their preparation as well as their use in medicaments” (BAYER AG, priority 1991, dated 1992).

As a reminder, the IC50 is the concentration at which inhibition is half-maximal. High values mean lower potency, low ones higher potency.

For the assay, the system named is 5-LO. The assay can be described thus: Lipoxygenase inhibition: release of leukotriene B4 (LTB4) from human polymorphonuclear leukocytes (PMN) after addition of substance and Ca ionophore, reverse phase HPLC. It is filed as cell-based. As to conditions: polymorphkernige Humanleukozyten (PMN), Ca-Ionophor. The text has this:
Die pharmakologischen Wirkungen der erfindungsgemäßen Substanzen werden durch folgende Methode bestimmt:
Als Maß für die Lipoxyenase-Hemmung wurde die Freisetzung von Leukotrien B4 (LTB4) an polymorphkernigen Humanleukozyten (PMN) nach Zugabe von Substanzen und Ca-Ionophor mittels reverse phase HPLC nach Borgeat, P. et al., Proc. Nat. Acad. Sci, 76, 2148 -2152 (1979), bestimmt.
In der Tabelle 1 sind beispielhaft die nach diesem Test erzielten Werte einiger erfindungsgemäßer Verbindungen aufgeführt: Tabelle 1
`COC(=O)C(c1ccc(OCc2ccc3ccccc3n2)c(F)c1)C1CCCC1` (stereo not shown) [Beispiel 1, 2-[3-Fluor4-(chinolin-2-methoxy)phenyl]-2-cyclopentylessigsäuremethylester] showed an IC50 of 2500 nM. This lies in the single-digit micromolar range.

`O=C(O)C(c1ccc(OCc2ccc3ccccc3n2)c(F)c1)C1CCCC1` (stereo not shown) [Beispiel 27, 2-[3-Fluor-4-(chinolin-2-yl-methoxy)phenyl]-2-cyclopentylessigsäure]: inhibition was half-maximal at 690 nM (IC50). Against the preceding compound, the IC50 is about 3.6-fold lower.

Take `O=C(O)C(c1ccc(OCc2ccc3ccccc3n2)c(-n2cccc2)c1)C1CCCCCC1` (stereo not shown) [Beispiel 40]: the concentration for half-maximal inhibition (IC50) came out at 790 nM.

In turn, `C=Cc1cc(C(C(=O)O)C2CCCC2)ccc1OCc1ccc2ccccc2n1` (stereo not shown) [Beispiel 41] registered an IC50 of 560 nM.
